The results in this text go back to patent US10829484B2, “Compounds and methods for kinase modulation, and indications therefor” (Plexxikon Inc., priority 2015, dated 2020).

The target of one assay is T1, BaF3-FLT3-ITD-F691L (Homo sapiens, UniProt P36888, INS600HVDFREYEYD/F691L, cells depend on it).
T1 sequence (P36888 with tags, fused parts or gaps INS600HVDFREYEYD/F691L): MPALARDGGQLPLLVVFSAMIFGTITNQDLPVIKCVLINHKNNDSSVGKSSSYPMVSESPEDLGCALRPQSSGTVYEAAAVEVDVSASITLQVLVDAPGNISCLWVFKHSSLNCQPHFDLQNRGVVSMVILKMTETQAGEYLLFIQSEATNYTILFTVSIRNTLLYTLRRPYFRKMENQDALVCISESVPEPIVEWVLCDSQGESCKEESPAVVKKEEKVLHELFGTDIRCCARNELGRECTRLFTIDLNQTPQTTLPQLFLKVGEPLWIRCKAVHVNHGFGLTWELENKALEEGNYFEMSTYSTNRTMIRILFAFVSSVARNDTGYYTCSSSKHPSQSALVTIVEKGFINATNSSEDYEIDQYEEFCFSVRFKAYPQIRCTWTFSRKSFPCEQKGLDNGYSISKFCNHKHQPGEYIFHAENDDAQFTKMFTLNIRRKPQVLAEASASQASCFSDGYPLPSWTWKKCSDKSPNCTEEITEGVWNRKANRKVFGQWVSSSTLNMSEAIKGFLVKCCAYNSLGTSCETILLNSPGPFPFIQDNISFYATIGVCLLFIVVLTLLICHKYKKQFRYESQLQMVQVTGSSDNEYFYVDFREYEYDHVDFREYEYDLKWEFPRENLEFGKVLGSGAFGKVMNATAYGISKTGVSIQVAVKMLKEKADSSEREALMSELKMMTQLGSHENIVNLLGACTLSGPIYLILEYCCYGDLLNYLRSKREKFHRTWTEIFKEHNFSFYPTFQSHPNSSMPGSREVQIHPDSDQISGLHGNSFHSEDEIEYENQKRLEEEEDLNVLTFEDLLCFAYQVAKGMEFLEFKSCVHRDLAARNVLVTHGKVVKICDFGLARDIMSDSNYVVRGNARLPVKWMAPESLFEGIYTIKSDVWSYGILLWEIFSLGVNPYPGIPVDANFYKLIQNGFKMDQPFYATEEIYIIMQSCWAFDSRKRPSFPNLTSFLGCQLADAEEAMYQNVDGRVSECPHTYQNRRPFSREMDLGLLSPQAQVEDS
Kind of assay: CTB viability assay CS0047, BaF3-FLT3-ITD-F691L. Type of assay: cell-based, murine. As to conditions: BaF3-FLT3-ITD-F691L cells, CellTiter Blue viability, 72 hours; read-out: Cell Assay: CS0047:BaF3-FLT3-ITD-F691L CTB:IC50. From the text:
(§1) Gene constructs containing the human FLT3 sequences FLT3-ITD, FLT3-ITD-F691L, FLT3-ITD-D835V and FLT3-D835V were synthesized by reverse translation of the human protein sequences, with codons optimized for mammalian expression. Sequence of the internal tandem duplication (ITD) was based on the MV4-11 ITD sequence. Synthetic DNA constructs were cloned into the pMSCV puro retroviral vector (Clontech) and transfected into the EcoPack2-293 packaging cell line (Clontech) to generate retroviruses that contain the different FLT3 constructs. Viruses were transduced into the IL-3-dependent, murine […] cell line, Ba/F3, and selected for puromycin resistance and IL-3 independence. All cell lines were cloned by limiting dilution and clones were used for all subsequent cell assays. Overexpression of the FLT3 mutants in the Ba/F3 cells results in constitutive phosphorylation of the exogenous FLT3 protein, which is required for IL-3 independence.
(§2) Cell lines were serum starved overnight in media containing 0.5% FBS, plated at 15,000 cells/well in 96-well white-walled tissue culture plates, and 3-fold serial dilutions of test compounds of Formula I were added for 72 hours at 37° C. CellTiter Blue (CTB, Promega) was added and incubated for an additional 3 hours at 37° C. Fluorescence was read at 560 nm excitation, 590 nm emission. Wells with CTB+media only were used for background subtraction, and the fluorescence of compound-treated cells was normalized to the fluorescence of DMSO-treated cells. IC50s were determined using Igor Pro software. All compounds are assayed in duplicate cell plates.

A further assay has as its target T2, BaF3-FLT3-ITD-D835V (Homo sapiens, UniProt P36888, INS600HVDFREYEYD/D835V, cells depend on it).
T2 sequence (P36888 with tags, fused parts or gaps INS600HVDFREYEYD/D835V): T1 sequence (P36888 with tags, fused parts or gaps INS600HVDFREYEYD/F691L) with L701F, D845V
As to the kind of experiment: CTB viability assay CS0048, BaF3-FLT3-ITD-D835V. The assay is classed as cell-based, murine. The settings on record: BaF3-FLT3-ITD-D835V cells, CellTiter Blue viability, 72 hours; read-out: Cell Assay: CS0048: BaF3-FLT3-ITD-D835V CTB:IC50.
From the text: as §1, §2

SMILES strings stand for the structures. Residue numbers refer to the chain shown, from its start.

For the compound `O=C(Cc1ccc(-c2cnc(Nc3cnn(CCO)c3C3CC3)nc2)cc1F)Nc1cc(C2(C(F)(F)F)CC2)on1` [P-210, 2-[4-[2-[[5-cyclopropyl-1-(2-hydroxyethyl)pyrazol-4-yl]amino]pyrimidin-5-yl]-2-fluorophenyl]-N-[5-[1-(trifluoromethyl)cyclopropyl]isoxazol-3-yl]acetamide], the GI50 on BaF3-FLT3-ITD-F691L and at BaF3-FLT3-ITD-D835V was 10 to 50 nM in each case. Consider `COc1nn(C(F)F)cc1Nc1ncc(-c2ccc(CC(=O)Nc3cc(C4(C(F)(F)F)CC4)on3)c(F)c2)c(C)n1` [P-144, 2-[4-[2-[[1-(difluoromethyl)-3-methoxypyrazol-4-yl]amino]-4-methyl-pyrimidin-5-yl]-2-fluorophenyl]-N-[5-[1-(trifluoromethyl)cyclopropyl]isoxazol-3-yl]acetamide], for which the GI50 is 10 to 50 nM on BaF3-FLT3-ITD-F691L and 50 to 100 nM on BaF3-FLT3-ITD-D835V. As to `CCc1nn(C2CCS(=O)(=O)C2)cc1Nc1ncc(-c2ccc(CC(=O)Nc3cc(C4(C(F)(F)F)CC4)on3)c(F)c2)cn1` (stereo not drawn) [P-012, 2-[4-[2-[[1-(1,1-dioxothiolan-3-yl)-3-ethylpyrazol-4-yl]amino]pyrimidin-5-yl]-2-fluorophenyl]-N-[5-[1-(trifluoromethyl)cyclopropyl]isoxazol-3-yl]acetamide], the GI50 on BaF3-FLT3-ITD-F691L and on BaF3-FLT3-ITD-D835V was 10 to 50 nM each time. Consider `COc1nn(C2CC2)cc1Nc1ncc(-c2ccc(CC(=O)Nc3cc(C4(C(F)(F)F)CC4)on3)c(F)c2)c(C)n1` [P-126, 2-[4-[2-[(1-cyclopropyl-3-methoxypyrazol-4-yl)amino]-4-methyl-pyrimidin-5-yl]-2-fluorophenyl]-N-[5-[1-(trifluoromethyl)cyclopropyl]isoxazol-3-yl]acetamide], for which the GI50 on BaF3-FLT3-ITD-F691L and on BaF3-FLT3-ITD-D835V was 10 to 50 nM each time. Turning to `Cn1cc(Nc2ncc(-c3ccc(CC(=O)Nc4cc(C5(C(F)(F)F)CC5)on4)c(F)c3)c(C(F)(F)F)n2)cn1` [P-027, 2-[2-fluoro-4-[2-[(1-methylpyrazol-4-yl)amino]-4-(trifluoromethyl)pyrimidin-5-yl]phenyl]-N-[5-[1-(trifluoromethyl)cyclopropyl]isoxazol-3-yl]acetamide], the figures for the GI50 at BaF3-FLT3-ITD-F691L and on BaF3-FLT3-ITD-D835V were 50 to 100 nM and 10 to 50 nM, respectively. Turning to `COc1nc(Nc2cn(C)nc2C)ncc1-c1ccc(CC(=O)Nc2cc(C3(C(F)(F)F)CC3)on2)c(F)c1` [P-117, 2-[4-[2-[(l,3-dimethylpyrazol-4-yl)amino]-4-methoxy-pyrimidin-5-yl]-2-fluorophenyl]-N-[5-[1-(trifluoromethyl)cyclopropyl]isoxazol-3-yl]acetamide], the GI50 at BaF3-FLT3-ITD-F691L was in the range of 10 to 50 nM. In the case of `Cc1nn(C)cc1Nc1ncc(-c2ccc(CC(=O)Nc3cc(C4(C(F)(F)F)CC4)on3)c(F)c2)cc1C#N` [P-156, 2-[4-[5-cyano-6-[(1,3-dimethylpyrazol-4-yl)amino]-3-pyridyl]-2-fluorophenyl]-N-[5-[1-(trifluoromethyl)cyclopropyl]isoxazol-3-yl]acetamide], the GI50 on BaF3-FLT3-ITD-F691L and on BaF3-FLT3-ITD-D835V was 10 to 50 nM in each case. For `CCn1cncc1Nc1ncc(-c2ccc(CC(=O)Nc3cc(C4(C(F)(F)F)CC4)on3)c(F)c2)cn1` [P-147, 2-[4-[2-[(3-ethylimidazol-4-yl)amino]pyrimidin-5-yl]-2-fluoro-phenyl]-N-[5-[1-(trifluoromethyl)cyclopropyl]isoxazol-3-yl]acetamide], the GI50 on BaF3-FLT3-ITD-F691L was in the range of 10 to 50 nM; at BaF3-FLT3-ITD-D835V, 50 to 100 nM. For `Cc1nc(Nc2cnn(C3CC3)c2C)ncc1-c1ccc(CC(=O)Nc2cc(C3(C(F)(F)F)CC3)on2)c(F)c1` [P-129, 2-[4-[2-[(1-cyclopropyl-5-methylpyrazol-4-yl)amino]-4-methyl-pyrimidin-5-yl]-2-fluorophenyl]-N-[5-[1-(trifluoromethyl)cyclopropyl]isoxazol-3-yl]acetamide] the same measures were 10 to 50 nM and 10 to 50 nM. The like results for `Cc1c(Nc2ncc(-c3ccc(CC(=O)Nc4cc(C5(C(F)(F)F)CC5)on4)c(F)c3)cn2)ncn1C` [P-075, 2-[4-[2-[(l,5-dimethylimidazol-4-yl)amino]pyrimidin-5-yl]-2-fluorophenyl]-N-[5-[1-(trifluoromethyl)cyclopropyl]isoxazol-3-yl]acetamide] were, in that order, 10 to 50 nM and 10 to 50 nM. In the case of `Cc1nc(Nc2cn(C)cn2)ncc1-c1ccc(CC(=O)Nc2cc(C3(C(F)(F)F)CC3)on2)c(F)c1` [P-119, 2-[2-fluoro-4-[4-methyl-2-[(1-methylimidazol-4-yl)amino]pyrimidin-5-yl]phenyl]-N-[5-[1-(trifluoromethyl)cyclopropyl]isoxazol-3-yl]acetamide], the GI50 is 10 to 50 nM at BaF3-FLT3-ITD-F691L and 50 to 100 nM on BaF3-FLT3-ITD-D835V.

Turning to `Cn1cncc1Nc1ncc(-c2ccc(CC(=O)Nc3cc(C4(C(F)(F)F)CC4)on3)c(F)c2)cn1` [P-132, 2-[2-fluoro-4-[2-[(3-methylimidazol-4-yl)amino]pyrimidin-5-yl]phenyl]-N-[5-[1-(trifluoromethyl)cyclopropyl]isoxazol-3-yl]acetamide], the GI50 on BaF3-FLT3-ITD-F691L and at BaF3-FLT3-ITD-D835V was 10 to 50 nM in each case. In the case of `COCCn1ncc(Nc2ncc(-c3ccc(CC(=O)Nc4cc(C5(C(F)(F)F)CC5)on4)c(F)c3)cn2)c1C1CC1` [P-204, 2-[4-[2-[[5-cyclopropyl-1-(2-methoxyethyl)pyrazol-4-yl]amino]pyrimidin-5-yl]-2-fluoro-phenyl]-N-[5-[1-(trifluoromethyl)cyclopropyl]isoxazol-3-yl]acetamide], the GI50 at BaF3-FLT3-ITD-F691L and at BaF3-FLT3-ITD-D835V was 10 to 50 nM in each case. As for `COc1cnccc1Nc1ncc(-c2ccc(CC(=O)Nc3cc(C4(C(F)(F)F)CC4)on3)c(F)c2)cn1` [P-105, 2-[2-fluoro-4-[2-[(3-methoxy-4-pyridyl)amino]pyrimidin-5-yl]phenyl]-N-[5-[1-(trifluoromethyl)cyclopropyl]isoxazol-3-yl]acetamide], the GI50 on BaF3-FLT3-ITD-F691L lay in the range of 10 to 50 nM; on BaF3-FLT3-ITD-D835V it was 50 to 100 nM.
